Test [1] has as its system MsmgΔmmpL3 expressing wild-type mmpL3tb. Kind of test: microbe, parasite or virus in culture. Type of test: cell-based. To be noted: Mycolicibacterium smegmatis, Tables 1A-1B; MmpL3 WT; read-out: MIC.
Test [2] relates to MsmgΔmmpL3 expressing mmpL3tb L189R. Type of test: cell-based, Mycobacterium smegmatis.
Test [3] relates to MsmgΔmmpL3 expressing mmpL3tb G253E. Format: cell-based, Mycobacterium smegmatis.
In test [4] the test system is MsmgΔmmpL3 expressing mmpL3tb S288T. Type of test: cell-based, Mycobacterium smegmatis.
Test [5] concerns MsmgΔmmpL3 expressing mmpL3tb S309C. Format: cell-based, Mycobacterium smegmatis.
Test [6] deals with MsmgΔmmpL3 expressing mmpL3tb T311I. Format: cell-based, Mycobacterium smegmatis.
Test [7] has as its system MsmgΔmmpL3 expressing mmpL3tb Q372R. Type of test: cell-based, Mycobacterium smegmatis.
Test [8] has as its system MsmgΔmmpL3 expressing mmpL3tb L567P. Type of test: cell-based, Mycobacterium smegmatis.
The subject of test [9] is MsmgΔmmpL3 expressing mmpL3tb S591I. Type of test: cell-based, Mycobacterium smegmatis.
The test system of test [10] is MsmgΔmmpL3 expressing mmpL3tb F644C. Type of test: cell-based, Mycobacterium smegmatis.
The test system of test [11] is MsmgΔmmpL3 expressing mmpL3tb V684G. Type of test: cell-based, Mycobacterium smegmatis.
In test [12] the test system is MsmgΔmmpL3 expressing mmpL3tb V684A. Format: cell-based, Mycobacterium smegmatis.
For another test, the target named is purified MmpL3tb protein (Mycobacterium tuberculosis, UniProt P9WJV5). Kind of test: Surface Plasmon Resonance binding to immobilized MmpL3tb. The following applies: for ka2 / kd1 / kd2 / ka1: SPR global fit; for ka1: HEPES-TX buffer with 5% DMSO; for Model (best-fit kinetic model): SPR sensorgrams fit globally; for Kd: equilibrium dissociation constant calculated from the rate constants; for SPR binding signal: in words.

Test [13] addresses T1, MmpL3tb- and MmpL3tb-GFP-coated particles (Mycobacterium tuberculosis, UniProt P9WJV5).
T1 construct: His tag; made in house; host or cells: Mycobacterium smegmatis ΔmmpL3 carrying pMVGH1-mmpL3tb or pMVGH1-mmpL3tb-gfp
Format: binding. To be noted: 15 min at room temperature; various probe concentrations.

Test [14] deals with MmpL3tb-GFP in MsmgΔmmpL3/pMVGH1-mmpL3tb-GFP cells. Type of test: cell-based. The following applies: 2 μM probe, 4 h at 37° C.

Structures are written as SMILES. Read-outs that look alike come from different tables or passages of the source. Marks after values point to notes of the source that are not given here. Bounds are passed on as bounds.

Chain of purified MmpL3tb protein (P9WJV5 whole entry): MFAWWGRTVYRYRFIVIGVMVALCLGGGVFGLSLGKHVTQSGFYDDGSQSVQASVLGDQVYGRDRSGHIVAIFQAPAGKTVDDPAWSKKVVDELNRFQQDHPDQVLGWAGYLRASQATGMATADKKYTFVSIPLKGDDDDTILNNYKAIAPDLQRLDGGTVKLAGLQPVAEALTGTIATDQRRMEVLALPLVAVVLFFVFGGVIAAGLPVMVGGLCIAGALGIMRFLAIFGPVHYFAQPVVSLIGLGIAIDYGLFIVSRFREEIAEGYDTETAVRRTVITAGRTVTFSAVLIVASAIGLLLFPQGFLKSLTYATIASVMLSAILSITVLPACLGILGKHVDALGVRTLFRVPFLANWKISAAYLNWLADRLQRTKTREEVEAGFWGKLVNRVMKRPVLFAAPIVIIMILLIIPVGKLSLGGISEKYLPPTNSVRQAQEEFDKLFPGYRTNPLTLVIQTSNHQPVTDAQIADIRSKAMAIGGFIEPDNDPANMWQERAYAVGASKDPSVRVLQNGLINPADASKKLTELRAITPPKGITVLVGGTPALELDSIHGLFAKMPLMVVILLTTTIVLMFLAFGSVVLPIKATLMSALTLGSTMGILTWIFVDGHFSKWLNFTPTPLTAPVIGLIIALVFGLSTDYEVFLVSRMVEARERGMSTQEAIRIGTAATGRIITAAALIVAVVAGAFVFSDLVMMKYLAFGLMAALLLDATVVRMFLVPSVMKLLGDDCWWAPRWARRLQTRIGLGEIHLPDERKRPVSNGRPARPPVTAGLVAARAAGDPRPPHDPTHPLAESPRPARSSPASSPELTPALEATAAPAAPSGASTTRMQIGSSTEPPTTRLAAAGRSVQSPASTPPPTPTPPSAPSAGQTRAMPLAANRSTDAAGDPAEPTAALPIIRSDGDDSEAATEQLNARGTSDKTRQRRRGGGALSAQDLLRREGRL
T1 sequence (P9WJV5 whole entry): as above

In the case of `CN(C)c1ccc2c(-c3ccc(C(=O)NCCCCCCn4cc(COc5ccc6[nH]c(C(=O)NC7CCCCCCC7)cc6c5)nn4)cc3C(=O)O)c3ccc(=[N+](C)C)cc-3oc2c1` [Compound 1], the MIC was 8 µg/mL in test [1]; >32^b μg/mL in test [2]; >32^b μg/mL in test [3]; >32^b μg/mL in test [4]; >32^b μg/mL in test [5]; >32^b μg/mL in test [6]. The MIC in test [7] is >32^b μg/mL; in test [8] it was 32^b μg/mL; in [9], >32^b μg/mL; in [10] it was 16 µg/mL; in [11] it was >32^b μg/mL; in [12], >32^b μg/mL. Also, the ka2 at purified MmpL3tb protein is on record as 0.039 1/RU*s. This molecule came in with a kd1 on purified MmpL3tb protein of 0.19 s⁻¹. Also, the kd2 at purified MmpL3tb protein was found to be 0.0273 s⁻¹. Besides, the ka1 on purified MmpL3tb protein was determined as 2138.3 M⁻¹ s⁻¹. Besides, at purified MmpL3tb protein, the “Model (best-fit kinetic model)” value was “Two-state reaction”. The Kd at purified MmpL3tb protein (read-out: KD1) is 36.1 µM. Besides, the SPR binding signal entry on purified MmpL3tb protein is “strong SPR signals”. Also, the “probe binding to coated particles (MFI)” value in test [13] is “concentration-dependent binding”. Further, the “colocalization with MmpL3tb-GFP” value in [14] is given as “colocalization of the probes with MmpL3tb-GFP”.

With `C[C@@H]1C(NC(=O)c2cc3cc(OCc4cn(CCCCCCNC(=O)c5ccc(-c6c7ccc(=[N+](C)C)cc-7oc7cc(N(C)C)ccc67)c(C(=O)O)c5)nn4)ccc3[nH]2)C[C@H]2C[C@@H]1C2(C)C` (stereo partly shown) [Compound 2], the MIC stood at 4 µg/mL in test [1]; 8 µg/mL in test [2]; 8 µg/mL in test [3]; 4 µg/mL in test [4]; 8 µg/mL in test [5]; 4 µg/mL in test [6]. In addition, the MIC is 16^b μg/mL in [7]; 4 µg/mL in test [8]; 8 µg/mL in [9]; 8 µg/mL in [10]; 4 µg/mL in [11]; 4 µg/mL in test [12]. In addition, on purified MmpL3tb protein, the ka2 is listed as 540.582 1/RU*s. In addition, at purified MmpL3tb protein, the kd1 came out at 0.02 s⁻¹. Also, the kd2 at purified MmpL3tb protein worked out at 0.1556 s⁻¹. For the same molecule, the ka1 at purified MmpL3tb protein is 36380.1 M⁻¹ s⁻¹. The “Model (best-fit kinetic model)” value on purified MmpL3tb protein is listed as “Heterogeneous ligand”. Besides, the Kd on purified MmpL3tb protein (read-out: KD1) was 0.5 µM; on purified MmpL3tb protein (read-out: KD2) it was 288 µM. Besides, the SPR binding signal result at purified MmpL3tb protein is on record as “strong SPR signals”. In addition, in [13], the “probe binding to coated particles (MFI)” value is recorded as “concentration-dependent binding”. For the same molecule, in test [14], the “colocalization with MmpL3tb-GFP” value is “colocalization of the probes with MmpL3tb-GFP”.

The record behind these values is patent publication US11608328B2, “Chemical probes to identify anti-mycobacterial MmpL3 inhibitors” (Creighton University, priority 2019, dated 2023).
